Laboratory results reported in the supplement of paper PMC10307832.

What was measured:
Assay in all cases: relative viability (nuclei count vs DMSO), 5 days (fraction); higher = more cells survive
[1] = system: ChaGo-K-1
How it was run: (§1)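 Lung cancer cell lines, seeded in 1536-well plates, were treated the following day by pin tool with a single drug or with five library-drug doses (not always all listed) in √10 steps on top of a fixed anchor-drug dose. Cells were fixed and nuclei stained in one step after 5 days, and nuclei were counted. Relative viability is the nuclei count for treated wells divided by that for vehicle wells, reported as medians of duplicate plates.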

[2] = system: RERF-LC-KJ
How it was run: as §1

[3] = system: NCI-H2087
How it was run: as §1

[4] = system: BEN
How it was run: as §1

[5] = system: NCI-H1792
How it was run: as §1

[6] = system: LU99A
How it was run: as §1

[7] = system: EMC-BAC-2
How it was run: as §1

[8] = system: EKVX
How it was run: as §1

[9] = system: LK-2
How it was run: as §1

[10] = system: NCI-H1734
How it was run: as §1

[11] = system: LOU-NH91
How it was run: as §1

[12] = system: NCI-H358
How it was run: as §1

[13] = system: HCC-78
How it was run: as §1

[14] = system: HCC-827
How it was run: as §1

[15] = system: NCI-H1650
How it was run: as §1

[16] = system: NCI-H727
How it was run: as §1

[17] = system: NCI-H2126
How it was run: as §1

[18] = system: COR-L 105
How it was run: as §1

[19] = system: NCI-H1944
How it was run: as §1

[20] = system: SW 1573
How it was run: as §1

[21] = system: EPLC-272H
How it was run: as §1

[22] = system: SK-MES-1
How it was run: as §1

[23] = system: LCLC-97TM1
How it was run: as §1

With Cc1cnc(-c2cnc(NCCNc3ccc(C#N)cn3)nc2-c2ccc(Cl)cc2Cl)[nH]1 + CC(=O)c1c(C)c2cnc(Nc3ccc(N4CCNCC4)cn3)nc2n(C2CCCC2)c1=O [Palbociclib] (partner 0.5 µM) the relative viability ([1]; first compound 0.08 µM) was 0.929, the relative viability ([1]; first compound 0.253 µM) was 0.807 and the relative viability ([1]; first compound 0.8 µM) was 0.903. The relative viability ([1]; first compound 2.53 µM) was 0.833, the relative viability ([2]; first compound 0.08 µM) was 1.18 and the relative viability ([2]; first compound 0.253 µM) was 0.905. For the same molecule, the relative viability ([2]; first compound 0.8 µM) was 1.01, the relative viability ([2]; first compound 2.53 µM) was 0.956 and the relative viability ([3]; first compound 0.08 µM) was 0.235. For the same molecule, the relative viability ([3]; first compound 0.8 µM) was 0.227, the relative viability ([3]; first compound 2.53 µM) was 0.146 and the relative viability ([4]; first compound 0.08 µM) was 0.495. For the same molecule, the relative viability ([4]; first compound 0.253 µM) was 0.506, the relative viability ([4]; first compound 0.8 µM) was 0.687 and the relative viability ([4]; first compound 2.53 µM) was 0.545. It also gave a relative viability ([5]; first compound 0.08 µM) of 0.677, a relative viability ([5]; first compound 0.253 µM) of 0.551 and a relative viability ([5]; first compound 0.8 µM) of 0.646. For the same molecule, the relative viability ([5]; first compound 2.53 µM) was 0.625, the relative viability ([6]; first compound 0.08 µM) was 0.375 and the relative viability ([6]; first compound 0.253 µM) was 0.388. For the same molecule, the relative viability ([6]; first compound 0.8 µM) was 0.442, the relative viability ([6]; first compound 2.53 µM) was 0.389 and the relative viability ([7]; first compound 0.08 µM) was 0.544. For the same molecule, the relative viability ([7]; first compound 0.253 µM) was 0.523, the relative viability ([7]; first compound 0.8 µM) was 0.543 and the relative viability ([7]; first compound 2.53 µM) was 0.512. For the same molecule, the relative viability ([8]; first compound 0.08 µM) was 0.493, the relative viability ([8]; first compound 0.253 µM) was 0.316 and the relative viability ([8]; first compound 0.8 µM) was 0.417. The relative viability ([8]; first compound 2.53 µM) was 0.444, the relative viability ([9]; first compound 0.08 µM) was 0.754 and the relative viability ([9]; first compound 0.253 µM) was 0.645. The relative viability ([9]; first compound 2.53 µM) was 0.583, the relative viability ([10]; first compound 0.08 µM) was 0.403 and the relative viability ([10]; first compound 0.253 µM) was 0.342. For the same molecule, the relative viability ([10]; first compound 0.8 µM) was 0.391, the relative viability ([10]; first compound 2.53 µM) was 0.189 and the relative viability ([11]; first compound 0.08 µM) was 0.547. It also gave a relative viability ([11]; first compound 0.253 µM) of 0.515, a relative viability ([11]; first compound 0.8 µM) of 0.581 and a relative viability ([11]; first compound 2.53 µM) of 0.527. It also gave a relative viability ([12]; first compound 0.08 µM) of 0.13, a relative viability ([12]; first compound 0.253 µM) of 0.14 and a relative viability ([12]; first compound 0.8 µM) of 0.134. For the same molecule, the relative viability ([12]; first compound 2.53 µM) was 0.143, the relative viability ([13]; first compound 0.08 µM) was 0.463 and the relative viability ([13]; first compound 0.253 µM) was 0.441. The relative viability ([13]; first compound 0.8 µM) was 0.466, the relative viability ([13]; first compound 2.53 µM) was 0.467 and the relative viability ([14]; first compound 0.08 µM) was 0.48. It also gave a relative viability ([14]; first compound 0.253 µM) of 0.371, a relative viability ([14]; first compound 0.8 µM) of 0.484 and a relative viability ([14]; first compound 2.53 µM) of 0.387. For the same molecule, the relative viability ([15]; first compound 0.08 µM) was 0.368, the relative viability ([15]; first compound 0.253 µM) was 0.306 and the relative viability ([15]; first compound 0.8 µM) was 0.306. For the same molecule, the relative viability ([15]; first compound 2.53 µM) was 0.258, the relative viability ([16]; first compound 0.08 µM) was 0.659 and the relative viability ([16]; first compound 0.253 µM) was 0.637. It also gave a relative viability ([16]; first compound 0.8 µM) of 0.644, a relative viability ([16]; first compound 2.53 µM) of 0.663 and a relative viability ([17]; first compound 0.08 µM) of 0.369. For the same molecule, the relative viability ([17]; first compound 0.253 µM) was 0.355, the relative viability ([17]; first compound 0.8 µM) was 0.331 and the relative viability ([17]; first compound 2.53 µM) was 0.341. For the same molecule, the relative viability ([18]; first compound 0.08 µM) was 0.397, the relative viability ([18]; first compound 0.253 µM) was 0.401 and the relative viability ([18]; first compound 0.8 µM) was 0.382. For the same molecule, the relative viability ([18]; first compound 2.53 µM) was 0.404, the relative viability ([19]; first compound 0.08 µM) was 0.341 and the relative viability ([19]; first compound 0.8 µM) was 0.366. It also gave a relative viability ([19]; first compound 2.53 µM) of 0.322, a relative viability ([20]; first compound 0.08 µM) of 0.387 and a relative viability ([20]; first compound 0.253 µM) of 0.336. The relative viability ([20]; first compound 0.8 µM) was 0.368, the relative viability ([20]; first compound 2.53 µM) was 0.146 and the relative viability ([21]; first compound 0.08 µM) was 0.345. For the same molecule, the relative viability ([21]; first compound 0.253 µM) was 0.323, the relative viability ([21]; first compound 0.8 µM) was 0.309 and the relative viability ([21]; first compound 2.53 µM) was 0.373. It also gave a relative viability ([22]; first compound 0.08 µM) of 0.363, a relative viability ([22]; first compound 0.253 µM) of 0.332 and a relative viability ([22]; first compound 0.8 µM) of 0.379. It also gave a relative viability ([22]; first compound 2.53 µM) of 0.394, a relative viability ([23]; first compound 0.08 µM) of 0.282 and a relative viability ([23]; first compound 0.253 µM) of 0.17. It also gave a relative viability ([23]; first compound 0.8 µM) of 0.215 and a relative viability ([23]; first compound 2.53 µM) of 0.209.
